Measured values: patent US20130053435A1, “Methods of Treating Alcohol Intoxication, Alcohol Use Disorders and Alcohol Abuse Which Comprises the Administration of Dihydromyricetin” (priority 2011, published 2013)

Tests used:
[1] = Metabolic studies in rats; assay type: in vivo, rat; conditions: DHM oral administration, 1 mg/kg
[2] = tested on: PTZ-induced seizures in rats; assay: PTZ-induced seizures after EtOH withdrawal; assay type: in vivo, rat; conditions: for PTZ-induced seizure duration: FIG. 12C
Protocol: Pentylenetetrazol (PTZ)-induced seizures were also measured in rats. […] PTZ dose used in this study (42 mg/kg in saline) was determined as the dose that induced seizures in 75% naïve rats. Briefly, after i.p. injection of PTZ, the time to onset and the duration of tonic-clonic seizures was determined as described previously. The researchers who conducted the animal behavior experiments were blind to treatment groups. Animals were used once only for any determination.
48 hr after injection, rats were sub-divided into 3 groups to measure signs of EtOH withdrawal.
As described herein, hyperexcitability was assayed with PTZ-induced seizures duration (FIG. 12C). PTZ induced 0.9±0.2 min seizures in subjects of the vehicle group and 6.5±1.1 min seizures in subjects of the EtOH group.

GABAARs [3] = assay: Whole-cell patch-clamp, cultured hippocampal neurons 24 h after EtOH/DHM exposure; assay type: cell-based, rat; conditions: 24 h withdrawal
Protocol: Control neurons were treated with corresponding vehicle as same procedure as EtOH-treated neurons. The concentration of 60 mM EtOH was selected in view of prior experiments. See Liang J et al (2007). Specifically, the concentration of 60 mM EtOH used to treat cultured neurons was chosen to match blood levels measured in adult rats after intoxication with gavage of 5 g/kg, which produced about 60 mM blood peak plasma [EtOH] lasting for about 2 to 3 hr and induced significant plasticity in GABAARs and tolerance.
Then, immediately before electrophysiological recording, cells grown on coverslips were transferred to a perfusion chamber (Warner Instruments) and visualized with an inverted microscope (TE200, Nikon). Whole-cell patch-clamp recordings were obtained from cultured neurons under voltage-clamp mode at room temperature (22-25° C.), at a holding potential of −70 mV. Cells were perfused with an extracellular solution (137 mM NaCl, 5 mM KCl, 2 mM CaCl2, 1 mM MgCl2, 20 mM glucose and 10 mM HEPES (310-320 Osm, pH adjusted to 7.40 with NaOH)). Glass pipettes were filled with the same internal solution as that in slice recordings, with an input resistance of 4-7 MΩ. GABAAR-mediated mIPSCs were recorded using the same pharmacological method as mentioned above. […] Electrical signals were amplified using a Multiclamp 200 B amplifier (Molecular Devices, USA). After establishing the whole-cell configuration, at least 10 min were allowed to elapse before the application of drug to allow the membrane patch to stabilize and exchange of ions between the recording electrode and the cytosol to occur. Data were acquired with pClamp software (Version 10.0, Molecular Devices, USA), digitized at 20 kHz (Digidata 1440A, Molecular Devices), and analyzed using the Clampfit software (Version 10.0, Molecular Devices) and the Mini Analysis Program (versions 6.0.7, Synaptosoft, Decatur, Ga.) using methods known in the art. See Hamann M, et al. (2002) Neuron 33(4):625-633; Stell B M and Mody I (2002) J Neurosci 22(10): RC223; and Liang (2007).

GABAARs [4] = tested on: T1, GABAARs; assay: Whole-cell patch-clamp, DGCs in hippocampal slices, acute drug application; assay type: cell-based, rat
T1 construct: DHM-enhanced Itonic; EC50 on GABAAR-mediated Itonic; other: control (vehicle) cultured neurons, DIV14; other: cultured neurons with EtOH exposure/withdrawal (60 mM, 30 min, 24 hr); EtOH-potentiated Itonic; GABAAR-mediated Ito
Protocol: (§1) Transverse slices (400 μm) of dorsal hippocampus were obtained with a Vibratome (VT 100, Technical Products International, St. Louis, Mo.) and standard techniques known in the art. Slices were continuously perfused with artificial cerebrospinal fluid (ACSF).
(§2) Signals were recorded in voltage-clamp mode with a […] amplifier (Molecular Devices, Sunnyvale, Calif.). Whole cell access resistances were in the range of <25 MΩ before electrical compensation by about 70%. During voltage-clamp recordings, access resistance was monitored by measuring the size of the capacitative transient in response to a 5 mV step command and the data were abandoned if changes >20% were encountered. At least 10 min was allowed for equilibration of the pipette solution with the intracellular milieu before commencing mIPSC recordings.
(§3) Data were analyzed using the Clampfit (Version 9.0, Molecular Devices) and the MiniAnalysis Program (versions 6.0.7, Synaptosoft, Decatur, Ga.).
(§4) The MiniAnalysis program (Synaptosoft, Decatur, Ga.) was used to analyze mIPSCs. Itonic is the averaged baseline currents of a given recording period. Itonic amplitude was calculated as the difference between the holding currents measured before and after picrotoxin (100 μM) or bicuculline (10 μM). […] Briefly, the recordings were low-pass filtered off-line (Clampfit software) at 2 kHz. The mIPSCs were detected (Mini Analysis Program, version 6.0.7) with threshold criteria of 8 pA amplitude and 20 pA*ms charge transfer. The frequency of mIPSCs was determined from all automatically detected events in a given 100 s recording period. For kinetic analysis, only single event mIPSCs with a stable baseline, sharp rising phase (10 to 90% rise time), and exponential decay were chosen during visual inspection of the recording trace. Double and multiple peak mIPSCs were excluded. At least 100 individual mIPSC events were recorded under each experimental condition. The mIPSC kinetics was obtained from analysis of the averaged chosen single events aligned with half rise time in each cell. Decay time constants were obtained by fitting a double exponential to the falling phase of the averaged mIPSCs. Itonic magnitudes were obtained from the averaged baseline current of a given recording period. Itonic amplitude was calculated as the difference between the holding currents measured before and after the application of picrotoxin (50 μM) or bicuculline (10 μM). […] The investigator performing the recordings and mIPSC analysis was blind to the treatment (vehicle, EtOH, E+D, or D) that the rats received.
(§5) As performed previously, whole-cell patch-clamp recordings in dentate gyms granule cells (DGCs) from hippocampal slices in vitro were conducted.

GABAARs [5] = tested on: T2, GABAARs; assay: as above; assay type: cell-based, rat
T2 construct: DHM-enhanced mIPSCs; other: control (vehicle) cultured neurons, DIV14; other: cultured neurons with EtOH exposure/withdrawal (60 mM, 30 min, 24 hr); EtOH-potentiated mIPSCs; effect on post-synaptic currents (mIPSCs); other: comparative experiments, rat hippocampal slices
Protocol: as §1, §2, §3, §4, §5

GABAARs [6] = tested on: T3, GABAARs; assay: as above; assay type: cell-based, rat; conditions: in the presence of 60 mM EtOH, rat hippocampal slices
T3 construct: other: in the presence of 60 mM EtOH, rat hippocampal; shift of the GABA concentration-response curve
Protocol: as §1, §2, §3, §4, §5

[7] = neurons treated with EtOH 60 mM + DHM
[8] = DHM 0.3 μM, DGCs from naïve rats
[9] = DHM 1 μM, DGCs in hippocampal slices
[10] = comparative experiments, rat hippocampal slices

- metabolic change (food and water intake, urine volume and stool volume) [1]: no metabolic change
SMILES: O=C1c2c(O)cc(O)cc2O[C@H](c2cc(O)c(O)c(O)c2)[C@H]1O [DHM, (2R,3R)-3,5,7-trihydroxy-2-(3,4,5-trihydroxyphenyl)-2,3-dihydrochromen-4-one]
- PTZ-seizure duration ([2]; 24 hr after DHM 1 mg/kg i.p. alone): did not induce any significant or observable changes in seizure duration
- PTZ seizure incidence ([2]; 24 hr withdrawal from DHM+EtOH): 85%
- PTZ-seizure duration ([2]; 24 hr withdrawal from DHM+EtOH (1 mg/kg+3 g/kg, i.p.), PTZ 42 mg/kg): 0.9 ± 0.2 min
- PTZ-induced seizure duration ([2]; 48 hr withdrawal, EtOH+DHM group): 1.7 ± 0.8 min
- PTZ-induced seizure duration ([2]; 48 hr, DHM group): 0.6 ± 0.4 min
- EtOH intoxication/withdrawal-induced increases in PTZ-induced seizure duration and incidence, female rats ([2]; female rats, co-administration of DHM+EtOH): inhibits, reduces and/or prevents
- GABAAR function after exposure/withdrawal (GABAARs [3]; DHM alone exposure): did not alter GABAAR function
- Itonic magnitude after acute EtOH (60 mM) (GABAARs [3]; [7]): 25.2±1.2 pA
- averaged Itonic magnitude (GABAARs [3]; [7]): 11.2±0.6 pA
- mIPSC potentiation by EtOH (GABAARs [3]; [7]): 8.3±9.4%
- GABAAR-mediated Itonic (GABAARs [4]; [8]): 29.0±6.7 pA
- Itonic (GABAARs [4]; [9]): 44.0±4.1 pA
- Itonic in presence of DHM plus EtOH (GABAARs [4]; DHM (0.3 μM) followed by co-application of 60 mM EtOH): 44.4±3.6 pA
- Itonic in presence of DHM before EtOH (GABAARs [4]; DHM (0.3 μM, FIG. 3 panel c) before EtOH): 41.1±2.2 pA
- EtOH-potentiated Itonic (GABAARs [4]; EtOH 60 mM + DHM 3 μM): 21.0±0.9 pA
- EtOH-potentiated Itonic (GABAARs [4]; EtOH 60 mM followed by co-application of 1 μM DHM): 32.0±2.0 pA
- effect on extrasynaptic GABAAR-mediated tonic current (Itonic) (GABAARs [4]; [10]): potentiates
- mIPSC total charge transfer (area) (GABAARs [5]; [8]): 615±22 fC
- mIPSC area (GABAARs [5]; [9]): 0.72±0.03 nC
- EtOH-potentiated mIPSCs (GABAARs [5]; EtOH 60 mM + DHM 3 μM): 0.70±0.02 nC
- effect on post-synaptic currents (mIPSCs) (GABAARs [5]; [10]): potentiates
- block of EtOH potentiation of GABAAR-mediated Itonic and mIPSCs (GABAARs [6]): dose-dependently blocks
